Assay results reported in PMC3753754, “Andrographis paniculata Extract and Andrographolide Modulate the Hepatic Drug Metabolism System and Plasma Tolbutamide Concentrations in Rats” (Evidence-based Complementary and Alternative Medicine : eCAM, 2013).
Marks after values point to notes of the source that are not given here.

Experiments:
[1] = Rat growth: body weight and liver weight after 5 days of daily oral dosing; format: in vivo, Sprague-Dawley rats; conditions: rats, oral 2 g/kg APE or 50 mg/kg AND daily for 5 days
Protocol: Seven-week-old male Sprague-Dawley rats cannulated in the jugular vein were purchased from the Bio LASCO Experimental Animal Center (Taipei, Taiwan). The animals were fed a standard rat diet and were randomly assigned into control, APE-treated, and andrographolide-treated groups (n = 5). Rats were housed in plastic cages in a room kept at 23 ± 1°C and 60 ± 5% relative humidity with a 12-hour light and dark cycle. Food and drinking water were available ad libitum. Control rats were orally administered methyl cellulose. […] After the 5th daily dose, rats were deprived of food overnight. On day 6, a 20 mg/kg oral dose of tolbutamide, as a solution in Cremophor EL (polyoxyl 35 hydrogenated castor oil, Sigma)/ethanol/water (30/10/60, v/v/v), was administered to each rat. After the administration of tolbutamide, serial blood samples were collected up to 12 h after dosing from each rat. The animals were then killed by exsanguination, and the livers were collected.
All animals were killed by exsanguination via the abdominal aorta while under carbon dioxide (CO2/O2, 70%/30%) anesthesia. Heparin was used as the anticoagulant. Plasma was separated from the blood by centrifugation (1750 ×g) at 4°C for 20 min. The liver from each animal was excised, weighed, and stored at −80°C. This research has received ethical approval from the institutional animal ethics committee of China Medical University, Taichung, Taiwan.

CYP1A2 = assay: Methoxyresorufin O-demethylation in liver microsomes of treated rats; format: in vivo; conditions: rat liver microsomes; oral 2 g/kg APE or 50 mg/kg AND daily for 5 days
Protocol: (§1) Liver was homogenized (1 : 4, w/v) in an ice-cold potassium phosphate buffer (pH 7.4) containing 7.4 mM K2HPO4, 2.6 mM KH2PO4, 1.15% KCl, and 1 mM phenylmethylsulfonyl fluoride (PMSF). Tissue homogenates were centrifuged at 10,000 ×g for 30 min at 4°C. The resulting supernatant was then centrifuged at 105,000 ×g for 1 h at 4°C. The microsomes thus obtained were washed several times to get rid of possible tolbutamide contamination and this can avoid tolbutamide interference of CYP activity, and the microsomes were then suspended in potassium phosphate buffer (pH 7.7) containing 7.5 mM K2HPO4, 14.5 mM KH2PO4, and 1 mM EDTA. […] Metabolites of each CYP enzyme reaction were determined by LC/MS as reported previously. The contents of total CYP and cytochrome b5 were quantified by the method of Omura and Sato [29]. Enzyme activity is expressed as picomoles of metabolite formed per minute per milligram of protein. The NADPH-CYP reductase activity was measured as described by Phillips and Langdon with the use of cytochrome c as the substrate. The microsomal protein concentration was determined by using a Coomassie Plus protein assay kit (Pierce, Rockford, IL, USA).

CYP3A = assay: Midazolam 1-hydroxylation in liver microsomes of treated rats; format: in vivo; conditions: rat liver microsomes; oral 2 g/kg APE or 50 mg/kg AND daily for 5 days
Protocol: as §1

[2] = system: Glutathione S-transferase; assay: GST activity in liver of treated rats; format: in vivo; conditions: rat liver; oral 2 g/kg APE or 50 mg/kg AND daily for 5 days
Protocol: The microsomal UGT activity was determined by using p-nitrophenol as the substrate. The rate of formation of p-nitrophenol glucuronic acid was measured by HPLC/UV [31]. GST activity was determined spectrophotometrically by measuring the formation rate of GSH conjugates.

P-glycoprotein = assay: Immunoblot and RT-PCR of hepatic P-glycoprotein in treated rats; format: in vivo; conditions: rat liver; APE or andrographolide for 5 days
Protocol: For P-glycoprotein expression, liver tissue was homogenized with phosphate-buffered saline containing 0.2% Triton X-100, 5 mM EDTA, and 1 mM PMSF. The homogenates were then centrifuged at 10,000 ×g for 30 min at 4°C. Proteins in the resulting supernatants were electrophoretically separated and were immunoblotted with P-glycoprotein antibody. The immunoreactive bands were detected by using an enhanced chemiluminescence plus Western blotting detection reagent (Amersham Biosciences, Boston, MA, USA).
Total RNA in liver samples was extracted by using the Trizol reagent (1 : 20, w/v). […] The sequences for the PCR primers were as follows: for CYP1A1 (forward: 5′-[…]-3′; reverse: 5′-[…]-3′), CYP1A2 (forward: 5′-[…]-3′; reverse: 5′-[…]-3′), CYP2C6 (forward: 5′-[…]-3′; reverse: 5′-[…]-3′), CYP2C11 (forward: 5′-[…]-3′; reverse: 5′-[…]-3′), CYP2D1 (forward: 5′-[…]-3′; reverse: 5′-[…]-3′), CYP2E1 (forward: 5′-[…]-3′; reverse: 5′-[…]-3′), CYP3A1 (forward: 5′-[…]-3′; reverse: 5′-[…]-3′), CYP3A2 (forward: 5′-[…]-3′; reverse: 5′-[…]-3′), and P-glycoprotein (forward: 5′-[…]-3′; reverse: 5′-[…]-3′). […] The PCR amplicons were then electrophoresed in 1% agarose gels containing 40 mM Tris/20 mM glacial acetic acid/2 mM EDTA buffer, and the relative densities of the PCR products were quantitated by use of Image Gauge software (Fujifilm, Tokyo, Japan). […]

C=C1CC[C@@H]2[C@](C)(CO)[C@H](O)CC[C@@]2(C)[C@@H]1C/C=C1/C(=O)OC[C@H]1O [andrographolide, Andrographolide]
Relative liver weight ([1]; (liver weight/body weight) × 100): 3.8 ± 0.3% | Body weight, Final ([1]; mean ± SD, n = 5): 332 ± 13^a g | Liver weight ([1]; mean ± SD, n = 5): 12.8 ± 1.5 g | Methoxyresorufin O-demethylase (1A2) (CYP1A2): 25.6 ± 7.2^b pmol/min/mg protein | Midazolam 1-hydroxylase (3A) (CYP3A): 320 ± 84^ab pmol/min/mg protein | Glutathione S-transferase activity [2]: 634 ± 62 nmol/min/mg protein | Protein and mRNA levels of membrane transporter P-glycoprotein (P-glycoprotein): only a minor effect
